Measurements published in US20240294543A1, “CYCLOHEPTA-THIENO-DIAZEPINE DERIVATIVES AS GABA A GAMMA1 PAM” (Hoffmann-La Roche Inc., priority 2021, published 2024).
pKi: −log10 of the molar value.

What was measured:
[1] = target: human GABAA α5β2γ1 receptor (Homo sapiens (Human), UniProt P31644+Q8N1C3); experiment: Radioligand binding assay, competition for [3H]RO7239181, γ1-containing GABAA subtypes
Experimental: The affinity of compounds at GABAA γ1 subunit-containing receptors was measured by competition for [^3H]RO7239181 (67.3 Ci/mmol; Roche) binding to membranes from HEK293F cells (ThermoFisher R79007) expressing human (transiently transfected) receptors of composition α5β2γ1, α2β2γ1, α1β2γ1. For better protein expression of the α2 subunit-containing receptors, the 28 amino acid long signal peptide (Met1 to Ala28) of the human GABAA α2 subunit was substituted by the 31 amino acid long signal peptide (Met1 to Ser31) of human GABAA α5 subunit.
Harvested pellets from HEK293F cells expressing the different GABAA receptor subtypes were resuspended in Mannitol Buffer pH 7.2-7.4 (Mannitol 0.29 M, Triethylamine 10 mM, Acetic acid 10 mM, EDTA 1 mM plus protease inhibitors (20 tablets Complete, Roche Diagnostics Cat. No. 05 056 489 001 per liter)), washed two times and then resuspended at 1:10 to 1:15 dilution in the same buffer. Cell disruption was performed by stirring the suspension in a Parr vessel #4637 at 435 psi for 15 minutes, and then the suspensions were centrifuged at 1000×g for 15 minutes at 4° C. (Beckman Avanti J-HC; rotor JS-4.2). The supernatant (S1) was transferred in a 21 Schott flask and the pellet (P1) was resuspended with Mannitol Buffer up to 175 ml. The resuspended pellet was transferred into a 250 ml Corning centrifugal beaker and centrifuged at 1500×g for 10 minutes at 4° C. (Beckman Avanti J-HC; rotor JS-4.2). The supernatant (S1) was then transferred in the 21 Schott flask and the pellet was discarded. The supernatants (S1) were centrifuged in 500 ml Beckman polypropylene centrifugal beaker at 15'000×g for 30 minutes at 4° C. (Beckman Avanti J-20 XP; rotor JLA-10.500). The pellet (P2) was resuspended with Mannitol Buffer 1:1 and frozen at −80° C. The supernatant (S2) was centrifuged in 100 ml Beckman polypropylene centrifugal tubes at 48000×g for 50 minutes at 4° C. (Beckman Avanti J-20 XP; rotor JA-18). The supernatant (S3) was discarded and the pellet (P3) was resuspended with 1:1 Mannitol Buffer. The P2 and P3 protein concentration was determined with the BIORAD Standard assay method with bovine serum albumin as standard and measured on the NANO-Drop 1000. The membrane suspension was aliquots (500 μl per tube) and stored at −80° C. until required.
Membrane homogenates were resuspended and polytronised (Polytron PT1200E Kinematica AG) in Potassium Phosphate 10 mM, KCl 100 mM binding buffer at pH 7.4 to a final assay concentration determined with a previous experiment.
Radioligand binding assays were carried out in a volume of 200 μL (96-well plates) which contained 100 μL of cell membranes, [^3H]RO7239181 at a concentration of 1.5 nM (α5β2γ1) or 20-30 nM (α1β2γ1, α2β2γ1) and the test compound in the range of [0.3-10000]×10^−9 M. Nonspecific binding was defined by 10×10^−6 (α5β2γ1) and 30×10^−6 M RO7239181 and typically represented less than 5% (α5β2γ1) and less than 20% (α1β2γ1, α2β2γ1) of the total binding. Assays were incubated to equilibrium for 1 hour at 4° C. and then, membranes were filtered onto unifilter (96-well white microplate with bonded GF/C filters preincubated 20-50 minutes in 0.3% Polyethylenimine) with a Filtermate 196 harvester (Packard BioScience) and washed 4 times with cold Potassium Phosphate 10 mM pH 7.4, KCl 100 mM binding buffer. After anhydrousing, filter-retained radioactivity was detected by liquid scintillation counting. Ki values were calculated using Excel-Fit (Microsoft) and are the means of two determinations.

h-GABA-A α2β2γ1 = h-GABA-A α2β2γ1 (Homo sapiens (Human), UniProt P47869+Q8N1C3); experiment: Two-electrode voltage clamp electrophysiology in Xenopus oocytes expressing GABAA receptors; assay type: cell-based; settings: for Efficacy (GABA) %: % modulation of GABA EC20 = 100*(Fold increase−1), compound at about 30-fold its Ki α2β2γ1; for Fold increase h-GABA-A α2β2γ1 oocyte @ 30-fold Ki: Xenopus oocytes, GABA EC20, compound at about 30-fold its Ki α2β2γ1
Experimental: Xenopus Oocytes Preparation Xenopus laevis oocytes at maturation stages V-VI were used for the expression of cloned mRNA encoding GABAA receptor subunits. Oocytes ready for RNA micro-injection were bought from Ecocyte, Castrop-Rauxel, Germany and stored in modified Barth's medium (composition in mM: NaCl 88, KCl 1, NaHCO3 2.4, HEPES 10, MgSO4 0.82, CaNO3 0.33, CaCl2 0.33, pH=7.5) at 20° C. until the experiment.
Oocytes were plated in 96-well plates for microinjection using the Roboinject automated instrument (MultiChannelSystems, Reutlingen, Germany). Approximately 50 nL of an aqueous solution containing the RNA transcripts for the subunits of the desired GABAA receptor subtype was injected into each oocyte. […] Oocytes were kept in modified Barth's medium (composition in mM: NaCl 88, KCl 1, NaHCO3 […], HEPES 10, MgSO4 0.82, CaNO3 0.33, CaCl2 0.33, pH=7.5) at 20° C. until the experiment.
Electrophysiological experiments were performed using the Roboocyte instrument (MultiChannelSystems, Reutlingen, Germany) on days 3 to 5 after the micro-injection of mRNA. During the experiment the oocytes were constantly superfused by a solution containing (in mM) NaCl 90, KCl 1, HEPES 5, MgCl2 1, CaCl2 1 (pH 7.4). Oocytes were impaled by two glass microelectrodes (resistance: 0.5-0.8 MQ) which were filled with a solution containing KCl 1M+K-acetate 1.5 M and voltage-clamped to −80 mV. The recordings were performed at room temperature using the Roboocyte two-electrode voltage clamp system (Multichannelsystem). After an initial equilibration period of 1.5 min GABA was added for 1.5 min at a concentration evoking approximately 20% of a maximal current response (EC20). After another rest interval of 2.5 min GABA was again added evoking a response of similar amplitude and shape. […] Current traces were recorded at a digitization rate of 10 Hz during and shortly before and after the GABA application.
Each compound and concentration was tested on at least 3 oocytes. Different oocytes were used for different compound concentrations.
For the analysis, the digitized current traces of the first and second GABA response were superimposed and, if necessary, rescaled to equal maximal amplitudes. The ratio between the two responses during the time interval of test compound application was calculated point by point. The extremum of the resulting “ratio trace” was taken as the efficacy (“Fold increase”) of the compound expressed as “% modulation of GABA EC20” (100*(Fold increase−1)).

Row | SMILES | pKi [1] | Efficacy (GABA) % (h-GABA-A α2β2γ1) [%] | Fold increase h-GABA-A α2β2γ1 oocyte @ 30-fold Ki (h-GABA-A α2β2γ1)
1 | Cc1nc2n(n1)-c1sc3c(c1C(c1c(F)cccc1F)=N[C@H]2C)COCCC3 [Example 57, (7S)-9-(2,6-difluorophenyl)-4,7-dimethyl-13-oxa-18-thia-2,3,5,8-tetrazatetracyclo[8.8.0.02,6.011,17]octadeca-1(10),3,5,8,11(17)-pentaene] | 8.82 | 73 | 1.73
2 | C[C@@H]1N=C(c2c(F)cccc2F)c2c(sc3c2COCCC3)-n2nc(C(=O)N[C@H]3C[C@@H](O)C3)nc21 [Example 64, (7S)-9-(2,6-difluorophenyl)-N-(cis-3-hydroxycyclobutyl)-7-methyl-13-oxa-18-thia-2,3,5,8-tetrazatetracyclo[8.8.0.02,6.011,17]octadeca-1(10),3,5,8,11(17)-pentaene-4-carboxamide] | 8.19 | 164 | 2.64
3 | CCOC1CN(C(=O)c2nc3n(n2)-c2sc4c(c2C(c2c(F)cccc2F)=N[C@H]3C)COCCO4)C1 [Example 31, [(7S)-9-(2,6-Difluorophenyl)-7-methyl-13,16-dioxa-18-thia-2,3,5,8-tetrazatetracyclo[8.8.0.02,6.011,17]octadeca-1(10),3,5,8,11(17)-pentaen-4-yl]-(3-ethoxyazetidin-1-yl)methanone] | 8.62 | 69 | 1.69
4 | Cc1nnc2n1-c1sc3c(c1C(c1c(F)cccc1F)=N[C@H]2C)CCC[C@H](F)C3 (single isomer, unassigned) [Example 17] | 8.75 | 135 | 2.35
5 | Cc1nnc2n1-c1sc3c(c1C(c1c(F)cccc1Cl)=N[C@H]2C)COCCC3 [Example 61, (7S)-9-(2-chloro-6-fluoro-phenyl)-3,7-dimethyl-13-oxa-18-thia-2,4,5,8-tetrazatetracyclo[8.8.0.02,6.011,17]octadeca-1(10),3,5,8,11(17)-pentaene] | 8.30 | 165 | 2.65
6 | C[C@@H]1N=C(c2c(F)cccc2F)c2c(sc3c2COCCO3)-n2nc(C(=O)NC[C@@](C)(O)C(F)(F)F)nc21 [Example 46, (7S)-9-(2,6-difluorophenyl)-7-methyl-N-[(2R)-3,3,3-trifluoro-2-hydroxy-2-methyl-propyl]-13,16-dioxa-18-thia-2,3,5,8-tetrazatetracyclo[8.8.0.02,6.011,17]octadeca-1(10),3,5,8,11(17)-pentaene-4-carboxamide] | 8.45 | 84 | 1.84
7 | Cc1nnc2n1-c1sc3c(c1C(c1c(F)cccc1F)=N[C@H]2C)CCCCO3 [Example 19, (7S)-9-(2,6-difluorophenyl)-3,7-dimethyl-16-oxa-18-thia-2,4,5,8-tetrazatetracyclo[8.8.0.02,6.011,17]octadeca-1(10),3,5,8,11(17)-pentaene] | 8.73 | 122 | 2.22
8 | CC(C)c1nnc2n1-c1sc3c(c1C(c1c(F)cccc1F)=N[C@H]2C)COCCO3 [Example 44, (7S)-9-(2,6-difluorophenyl)-3-isopropyl-7-methyl-13,16-dioxa-18-thia-2,4,5,8-tetrazatetracyclo[8.8.0.02,6.011,17]octadeca-1(10),3,5,8,11(17)-pentaene] | 8.31 | 116 | 2.16
9 | CCc1nc2n(n1)-c1sc3c(c1C(c1c(F)cccc1F)=N[C@H]2C)COC[C@H](C)O3 [Example 49, (7S,15S)-9-(2,6-difluorophenyl)-4-ethyl-7,15-dimethyl-13,16-dioxa-18-thia-2,3,5,8-tetrazatetracyclo[8.8.0.02,6.011,17]octadeca-1(10),3,5,8,11(17)-pentaene] | 8.48 | 131 | 2.31
10 | Cc1nnc2n1-c1sc3c(c1C(c1c(F)cccc1F)=N[C@H]2C)CCCC[C@@H]3F (single isomer, unassigned) [Example 12] | 8.58 | 185 | 2.85
11 | Cc1cn2c(nc1=O)[C@H](C)N=C(c1c(F)cccc1F)c1c-2sc2c1CCCCC2 [Example 26, (8S)-10-(2,6-difluorophenyl)-4,8-dimethyl-19-thia-2,6,9-triazatetracyclo[9.8.0.02,7.012,18]nonadeca-1(11),3,6,9,12(18)-pentaen-5-one] | 8.42 | 109 | 2.09
12 | Cc1nnc2n1-c1sc3c(c1C(c1c(F)cccc1F)=N[C@H]2C)CC[C@@H](O)CC3 [Example 27, (7S,14R)-9-(2,6-difluorophenyl)-3,7-dimethyl-18-thia-2,4,5,8-tetrazatetracyclo[8.8.0.02,6.011,17]octadeca-1(10),3,5,8,11(17)-pentaen-14-ol] | 7.96 | 77 | 1.77
